What was measured:
Type in all cases: tissue-based
[1] = molecular target: T1, Adrenergic receptor alpha-2 (Rattus norvegicus, UniProt P22086+P19328+P22909); assay: In vitro binding affinity against Alpha-2 adrenergic receptor of rat cerebral cortex using [3H]RX-821002
T1 sequence (P22086 whole entry): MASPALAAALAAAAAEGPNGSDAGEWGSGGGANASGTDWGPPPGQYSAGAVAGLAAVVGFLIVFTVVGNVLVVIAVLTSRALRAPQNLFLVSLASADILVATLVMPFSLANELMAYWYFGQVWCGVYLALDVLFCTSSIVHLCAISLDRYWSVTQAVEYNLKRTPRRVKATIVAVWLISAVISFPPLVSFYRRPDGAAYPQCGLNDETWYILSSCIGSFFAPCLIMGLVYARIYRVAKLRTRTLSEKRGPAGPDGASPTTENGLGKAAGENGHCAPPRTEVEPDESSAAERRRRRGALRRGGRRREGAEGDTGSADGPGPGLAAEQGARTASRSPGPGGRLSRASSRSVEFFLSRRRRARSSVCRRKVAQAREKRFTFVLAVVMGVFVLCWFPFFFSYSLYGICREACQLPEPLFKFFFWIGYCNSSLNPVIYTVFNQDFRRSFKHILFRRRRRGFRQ
T1 sequence (P19328 whole entry): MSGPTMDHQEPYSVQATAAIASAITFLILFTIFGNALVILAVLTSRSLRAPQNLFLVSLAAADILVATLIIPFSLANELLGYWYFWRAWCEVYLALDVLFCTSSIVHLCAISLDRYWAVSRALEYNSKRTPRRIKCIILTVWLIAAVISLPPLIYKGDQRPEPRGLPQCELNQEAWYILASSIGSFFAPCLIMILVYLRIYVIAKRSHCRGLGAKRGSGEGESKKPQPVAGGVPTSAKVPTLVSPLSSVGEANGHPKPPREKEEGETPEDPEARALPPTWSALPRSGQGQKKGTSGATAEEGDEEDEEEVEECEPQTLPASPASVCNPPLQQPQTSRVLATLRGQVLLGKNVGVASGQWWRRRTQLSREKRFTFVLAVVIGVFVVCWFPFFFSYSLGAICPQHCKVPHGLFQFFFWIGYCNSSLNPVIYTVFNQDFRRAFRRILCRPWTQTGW
T1 sequence (P22909 whole entry): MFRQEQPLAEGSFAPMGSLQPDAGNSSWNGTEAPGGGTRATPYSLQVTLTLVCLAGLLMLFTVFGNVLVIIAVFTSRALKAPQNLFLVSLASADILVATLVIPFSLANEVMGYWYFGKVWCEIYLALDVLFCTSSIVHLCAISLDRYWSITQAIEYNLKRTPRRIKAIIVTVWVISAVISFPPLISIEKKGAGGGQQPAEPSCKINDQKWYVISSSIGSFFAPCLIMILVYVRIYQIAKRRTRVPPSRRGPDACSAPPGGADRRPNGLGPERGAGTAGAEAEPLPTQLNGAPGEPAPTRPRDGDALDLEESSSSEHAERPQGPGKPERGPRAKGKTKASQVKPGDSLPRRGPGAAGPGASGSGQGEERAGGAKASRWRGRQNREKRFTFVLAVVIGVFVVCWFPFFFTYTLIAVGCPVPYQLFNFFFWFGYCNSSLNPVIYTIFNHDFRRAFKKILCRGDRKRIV

[2] = molecular target: 5-hydroxytryptamine receptor 2A (Rattus norvegicus, UniProt P14842); assay: In vitro binding affinity against 5-HT2A receptor of rat cerebral cortex using [3H]ketanserin
[3] = molecular target: T2, 5-hydroxytryptamine receptor 1A (Rattus norvegicus, UniProt P19327); assay: In vitro binding affinity against 5-HT1A receptor of rat hippocampus using [3H]8-OH-DPAT
T2 sequence (P19327 whole entry): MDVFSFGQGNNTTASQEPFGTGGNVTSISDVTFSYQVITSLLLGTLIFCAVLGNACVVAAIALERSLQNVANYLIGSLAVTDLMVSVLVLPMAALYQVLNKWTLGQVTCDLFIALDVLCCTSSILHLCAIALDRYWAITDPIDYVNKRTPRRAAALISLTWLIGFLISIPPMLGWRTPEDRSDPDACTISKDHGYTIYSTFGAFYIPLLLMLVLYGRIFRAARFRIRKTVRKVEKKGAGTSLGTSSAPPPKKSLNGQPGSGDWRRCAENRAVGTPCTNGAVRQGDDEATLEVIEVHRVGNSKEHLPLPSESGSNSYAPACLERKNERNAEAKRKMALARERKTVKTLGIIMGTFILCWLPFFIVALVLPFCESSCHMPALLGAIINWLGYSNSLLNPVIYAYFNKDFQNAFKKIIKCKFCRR

D(1A) dopamine receptor = D(1A) dopamine receptor (Rattus norvegicus, UniProt P18901); assay: In vitro binding affinity against Dopamine receptor D1 of rat striatum using [3H]SCH-23390
D(2) dopamine receptor = D(2) dopamine receptor (Rattus norvegicus, UniProt P61169); assay: In vitro binding affinity against Dopamine receptor D2 of rat striatum using [3H]raclopride
D(2) dopamine receptor, sequence (P61169 whole entry): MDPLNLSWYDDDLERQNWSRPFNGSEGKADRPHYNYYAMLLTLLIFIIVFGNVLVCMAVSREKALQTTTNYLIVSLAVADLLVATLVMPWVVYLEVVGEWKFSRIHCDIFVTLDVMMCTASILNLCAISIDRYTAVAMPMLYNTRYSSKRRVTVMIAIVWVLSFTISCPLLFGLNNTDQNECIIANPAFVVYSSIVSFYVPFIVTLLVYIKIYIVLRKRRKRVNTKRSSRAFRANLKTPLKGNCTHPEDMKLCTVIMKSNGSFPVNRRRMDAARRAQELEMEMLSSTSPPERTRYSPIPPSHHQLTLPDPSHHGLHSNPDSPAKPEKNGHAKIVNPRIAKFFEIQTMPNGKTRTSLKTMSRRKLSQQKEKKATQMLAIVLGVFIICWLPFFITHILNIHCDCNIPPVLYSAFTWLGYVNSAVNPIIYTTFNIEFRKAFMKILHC

5-hydroxytryptamine receptor 2A, sequence (P14842 whole entry): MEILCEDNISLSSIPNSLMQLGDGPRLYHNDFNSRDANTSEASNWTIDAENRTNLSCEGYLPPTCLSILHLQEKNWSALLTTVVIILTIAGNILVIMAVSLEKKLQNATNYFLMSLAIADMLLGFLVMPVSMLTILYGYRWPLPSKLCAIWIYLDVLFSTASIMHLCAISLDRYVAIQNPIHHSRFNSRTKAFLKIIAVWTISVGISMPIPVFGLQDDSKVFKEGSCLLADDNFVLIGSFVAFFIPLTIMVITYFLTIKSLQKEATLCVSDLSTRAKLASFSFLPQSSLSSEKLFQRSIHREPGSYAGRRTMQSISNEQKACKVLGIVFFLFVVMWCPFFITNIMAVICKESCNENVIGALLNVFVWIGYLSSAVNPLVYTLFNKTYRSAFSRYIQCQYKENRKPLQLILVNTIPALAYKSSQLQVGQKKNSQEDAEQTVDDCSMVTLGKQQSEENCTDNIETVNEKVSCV
D(1A) dopamine receptor, sequence (P18901 whole entry): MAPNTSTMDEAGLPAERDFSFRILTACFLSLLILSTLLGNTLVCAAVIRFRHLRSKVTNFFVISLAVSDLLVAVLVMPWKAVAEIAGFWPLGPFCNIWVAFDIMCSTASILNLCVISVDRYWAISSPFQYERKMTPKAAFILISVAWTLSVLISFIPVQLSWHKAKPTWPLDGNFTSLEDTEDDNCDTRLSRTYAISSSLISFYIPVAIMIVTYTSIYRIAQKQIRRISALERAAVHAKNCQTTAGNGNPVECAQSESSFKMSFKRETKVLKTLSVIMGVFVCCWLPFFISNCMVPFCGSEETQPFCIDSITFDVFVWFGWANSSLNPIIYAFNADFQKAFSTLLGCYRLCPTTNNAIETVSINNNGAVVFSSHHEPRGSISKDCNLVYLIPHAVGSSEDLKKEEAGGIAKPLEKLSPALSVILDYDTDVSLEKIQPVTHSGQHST

Compound	Ki [1]	Ki [2]	Ki [3]	Ki (D(1A) dopamine receptor)	Ki (D(2) dopamine receptor)
O=C(c1cccc(CN2CCC(c3ccccc3)C2)c1)N1CCCCC1 (stereo not given)	24 nM	320 nM	30.6 nM	88100 nM	783 nM
O=C1c2ccccc2S(=O)(=O)N1CCCCN1CCC(c2ccc(Cl)cc2)C1 (stereo not given)	56 nM	232 nM	2.6 nM	1570 nM	327 nM
O=C1c2ccccc2S(=O)(=O)N1CCCCN1CCC(c2ccc(F)cc2)C1 (stereo not given)	334 nM	> 367 nM	4.2 nM	6670 nM	263 nM

Molecules with a lower Ki [2], results first:

Ki [1]	Ki [2]	Ki [3]	Ki (D(1A) dopamine receptor)	Ki (D(2) dopamine receptor)	Compound
12 nM	184 nM	30.4 nM	1620 nM	185 nM	O=C1c2ccccc2CN1CCCCN1CCC(c2ccc(Cl)cc2)C1 (stereo not given)
44 nM	46 nM	15.3 nM	37600 nM	334 nM	O=C(c1cccc(CN2CCC(c3ccc(Cl)cc3)C2)c1)N1CCCCC1 (stereo not given)
11 nM	46 nM	11.5 nM	1950 nM	77 nM	O=C1c2ccccc2CN1CCCCN1CCC(c2ccccc2)C1 (stereo not given)
16 nM	34 nM	2.7 nM	12500 nM	195 nM	O=C1c2ccccc2S(=O)(=O)N1CCCCN1CCC(c2ccccc2)C1 (stereo not given)

Reference: ChEMBL document CHEMBL1131710, “N-substituted-3-arylpyrrolidines: potent and selective ligands at serotonin 1A receptor” (Bioorg Med Chem Lett, 1999)
